We go through 10 molecules from publication PMC9077246, “Novel spirocyclic tranylcypromine derivatives as lysine-specific demethylase 1 (LSD1) inhibitors” (RSC Advances, 2018).

Where a name gives a salt, the structure may show the parent alone.

The target of assay [1] is T1, MAO-A (Homo sapiens, UniProt P21397).
T1 sequence (P21397 1-527): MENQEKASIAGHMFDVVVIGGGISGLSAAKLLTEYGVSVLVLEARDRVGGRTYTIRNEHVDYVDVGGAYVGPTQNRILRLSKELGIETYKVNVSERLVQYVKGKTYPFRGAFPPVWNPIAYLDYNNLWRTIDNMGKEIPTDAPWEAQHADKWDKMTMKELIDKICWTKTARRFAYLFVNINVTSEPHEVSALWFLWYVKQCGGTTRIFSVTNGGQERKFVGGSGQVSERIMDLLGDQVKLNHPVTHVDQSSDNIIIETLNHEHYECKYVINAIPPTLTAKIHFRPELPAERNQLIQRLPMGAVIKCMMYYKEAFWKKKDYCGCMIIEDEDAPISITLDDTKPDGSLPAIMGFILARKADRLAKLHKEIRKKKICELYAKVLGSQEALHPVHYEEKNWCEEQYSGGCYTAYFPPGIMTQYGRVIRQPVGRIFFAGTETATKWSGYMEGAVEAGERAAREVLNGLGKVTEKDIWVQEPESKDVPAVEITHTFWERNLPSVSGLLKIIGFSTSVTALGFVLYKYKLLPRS
As to the kind of experiment: biochemical.
Description: (§1) MAO-A and MAO-B enzymes were purchased from Sigma-Aldrich and the inhibition assay was tested with Promega MAO-Glo™ Assay kit according to the manufacturer's protocol. The luminescent signals were detected using Envision (PerkinElmer). The test was carried out in triplicate. And the IC50 data was calculated using the software GraphPad Prism 5, and chosen the equation “sigmoidal dose–response (variable slope)” for curve fitting.

Assay [2] addresses T2, Recombinant human LSD1 (172–852 aa) (Homo sapiens, UniProt O60341). Particulars: for fold less potent at LSD1 than the unsubstituted derivatives 21a and 21b: 23a, 23b vs 21a.
Description: (§2) LSD1 or LSD2 enzyme inhibition assay was performed with Lance Ultra LSD1 Histone H3-Lysine 4 Demethylase Assay kit (Perkin Elmer) according to the manufacturer's protocol. […] The test was carried out in triplicate. And the IC50 data was calculated using the software GraphPad Prism 5, and chosen the equation “sigmoidal dose–response (variable slope)” for curve fitting.
The target of another assay is T3, MAO-B (Homo sapiens, UniProt P27338).
T3 sequence (P27338 1-520): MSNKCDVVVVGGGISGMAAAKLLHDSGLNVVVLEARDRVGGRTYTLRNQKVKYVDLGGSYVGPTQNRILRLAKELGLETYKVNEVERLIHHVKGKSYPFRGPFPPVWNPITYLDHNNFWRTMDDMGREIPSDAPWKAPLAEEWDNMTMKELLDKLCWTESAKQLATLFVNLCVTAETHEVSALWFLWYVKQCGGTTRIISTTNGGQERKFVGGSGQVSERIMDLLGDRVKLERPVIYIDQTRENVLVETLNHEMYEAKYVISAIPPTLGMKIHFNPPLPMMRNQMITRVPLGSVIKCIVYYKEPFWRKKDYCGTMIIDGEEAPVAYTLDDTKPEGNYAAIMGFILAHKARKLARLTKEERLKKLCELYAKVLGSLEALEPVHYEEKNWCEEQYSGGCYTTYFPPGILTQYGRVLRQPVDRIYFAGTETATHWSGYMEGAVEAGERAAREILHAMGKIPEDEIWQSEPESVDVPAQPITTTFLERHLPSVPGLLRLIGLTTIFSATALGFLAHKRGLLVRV
Put plainly: biochemical.

In assay [3] the target is T2, Recombinant human LSD1 (172–852 aa). As to the kind of experiment: biochemical.
Description: as §2
The target in a further assay is T4, full-length LSD2 (Homo sapiens, UniProt Q8NB78).
T4 sequence (Q8NB78 1-822): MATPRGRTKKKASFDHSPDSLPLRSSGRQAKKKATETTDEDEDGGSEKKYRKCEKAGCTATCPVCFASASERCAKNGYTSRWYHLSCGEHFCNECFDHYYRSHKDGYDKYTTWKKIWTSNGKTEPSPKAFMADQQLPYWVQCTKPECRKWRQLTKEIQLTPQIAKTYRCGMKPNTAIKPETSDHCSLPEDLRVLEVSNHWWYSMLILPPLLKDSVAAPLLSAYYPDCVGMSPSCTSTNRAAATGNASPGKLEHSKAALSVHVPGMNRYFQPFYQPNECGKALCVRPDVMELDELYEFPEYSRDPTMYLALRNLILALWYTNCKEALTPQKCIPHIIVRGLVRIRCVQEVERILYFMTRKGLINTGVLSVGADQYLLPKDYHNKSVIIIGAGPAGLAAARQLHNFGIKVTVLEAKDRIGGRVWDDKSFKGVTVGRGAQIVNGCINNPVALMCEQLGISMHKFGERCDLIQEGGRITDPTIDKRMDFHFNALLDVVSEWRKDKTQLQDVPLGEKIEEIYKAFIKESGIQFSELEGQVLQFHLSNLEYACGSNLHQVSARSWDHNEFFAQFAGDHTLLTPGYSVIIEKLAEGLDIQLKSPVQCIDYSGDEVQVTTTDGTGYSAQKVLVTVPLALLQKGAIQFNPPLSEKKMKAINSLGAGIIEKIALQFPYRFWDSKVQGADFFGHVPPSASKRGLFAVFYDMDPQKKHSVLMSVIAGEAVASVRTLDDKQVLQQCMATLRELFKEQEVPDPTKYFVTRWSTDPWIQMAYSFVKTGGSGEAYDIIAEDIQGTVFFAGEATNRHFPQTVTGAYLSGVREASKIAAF
Put plainly: LSD2 inhibition assay (Lance Ultra kit, TR-FRET). It counts as biochemical.

Assay [4] addresses T1, MAO-A. Particulars: IC50 values for LSD1 vs. MAO-A.
Description: as §1
[5] abbreviates: MAO-A, IC50, Table 1, mean ± SEM, eight-point experiments, three independent experiments.
The mark [6] stands for this setting: MAO-B, IC50, Table 1, mean ± SEM, eight-point experiments, three independent experiments.

Description for MAO-B: as §1
Description for full-length LSD2: as §2

For `c1cncc(CN[C@H]2CC23CCc2ccccc23)c1` (mixture of isomers) [Compound 21b, (2S)-N-(Pyridin-3-ylmethyl)-2′,3′-dihydrospiro[cyclopropane-1,1′-inden]-2-amine], the half-maximal inhibitory concentration (IC50) against MAO-A [1] (setting [5]) was 6 ± 1.1 µM; on MAO-B (setting [6]), 28 ± 6 µM; in assay [3], 0.02 ± 0.003 µM. For the same molecule, in assay [2] (21a vs 8a, 21b vs 8b), the “fold more potent at LSD1 than 8a and 8b, respectively” value is reported as 39 fold.

As to `Fc1ncccc1CN[C@@H]1CC12CCc1ccccc12` (mixture of isomers) [Compound 23a, (2R)-N-((2-Fluoropyridin-3-yl)methyl)-2′,3′-dihydrospiro[cyclopropane-1,1′-inden]-2-amine], the 50% inhibitory concentration (IC50) against MAO-A [1] (setting [5]) turned out to be 9.7 ± 1.5 µM; against full-length LSD2, 13 ± 3 µM; against MAO-B (setting [6]), 8.2 ± 1.5 µM; in assay [3], 0.064 ± 0.001 µM. For the same molecule, in assay [2], the “fold less potent at LSD1 than the unsubstituted derivatives 21a and 21b” value is reported as “approximately 4 fold”.

In the case of `c1ccc(CN[C@H]2CC23CCc2ccccc23)cc1` (stereo in doubt) [Compound 13b, (2S)-N-Benzyl-2′,3′-dihydrospiro[cyclopropane-1,1′-inden]-2-amine], the “selectivity index LSD1 vs. MAO-A in words” value at MAO-A [4] was “low”. Also, the 50% inhibitory concentration (IC50) on MAO-A [1] (setting [5]) is 0.13 ± 0.01 µM; against full-length LSD2, 2 ± 0.2 µM; against MAO-B (setting [6]), 5.1 ± 0.1 µM; in assay [3], 0.11 ± 0.02 µM.

Consider `COc1ccc(F)cc1CN[C@@H]1CC12CCc1ccccc12` (stereo in doubt) [Compound 17a, (2R)-N-(5-Fluoro-2-methoxybenzyl)-2′,3′-dihydrospiro[cyclopropane-1,1′-inden]-2-amine], for which the IC50 against MAO-A [1] (setting [5]) was 0.92 ± 0.18 µM; against full-length LSD2 it was 0.8 ± 0.27 µM; on MAO-B (setting [6]) it was 2.3 ± 0.4 µM; in assay [3] it was 0.0066 ± 0.0015 µM.

As for `COc1ccc(F)cc1CN[C@H]1CC12CCc1ccccc12` (stereo in doubt) [Compound 17b, (2S)-N-(5-Fluoro-2-methoxybenzyl)-2′,3′-dihydrospiro[cyclopropane-1,1′-inden]-2-amine], the 50% inhibitory concentration (IC50) at MAO-A [1] (setting [5]) was determined as 0.12 ± 0.01 µM; against full-length LSD2, 1.7 ± 0.5 µM; on MAO-B (setting [6]), 27 ± 4 µM; in assay [3], 0.017 ± 0.003 µM.

Consider `COc1cc(F)ccc1CN[C@@H]1CC12CCc1ccccc12` (stereo in doubt) [Compound 18a, (2R)-N-(4-Fluoro-2-methoxybenzyl)-2′,3′-dihydrospiro[cyclopropane-1,1′-inden]-2-amine], for which the IC50 stood at 2.2 ± 0.7 µM against MAO-A [1] (setting [5]), 0.66 ± 0.06 µM against full-length LSD2, 8.7 ± 1.1 µM on MAO-B (setting [6]) and 0.0071 ± 0.0013 µM in assay [3].

As to `COc1cc(F)ccc1CN[C@H]1CC12CCc1ccccc12` (stereo in doubt) [Compound 18b, (2S)-N-(4-Fluoro-2-methoxybenzyl)-2′,3′-dihydrospiro[cyclopropane-1,1′-inden]-2-amine], the “selectivity index LSD1 vs. MAO-A in words” value on MAO-A [4] is reported as “low”. In addition, the IC50 amounted to 0.09 ± 0.01 µM against MAO-A [1] (setting [5]), 0.49 ± 0.1 µM against full-length LSD2, 31 ± 4 µM against MAO-B (setting [6]) and 0.015 ± 0.003 µM in assay [3].

For `COc1ncccc1CN[C@@H]1CC12CCc1ccccc12` (stereo in doubt) [Compound 22a, (2R)-N-((2-Methoxypyridin-3-yl)methyl)-2′,3′-dihydrospiro[cyclopropane-1,1′-inden]-2-amine], the IC50 against MAO-A [1] (setting [5]) is over 100 µM; on MAO-B (setting [6]) it was 47 ± 5 µM; in assay [3] it was 0.032 ± 0.006 µM. The “fold less potent at LSD1 than the cis-isomer” value in assay [2] (22a vs 22b) came to 3 fold.

Consider `Fc1ncccc1CN[C@H]1CC12CCc1ccccc12` (stereo in doubt) [Compound 23b, (2S)-N-((2-Fluoropyridin-3-yl)methyl)-2′,3′-dihydrospiro[cyclopropane-1,1′-inden]-2-amine], for which the IC50 at MAO-A [1] (setting [5]) was determined as 9.8 ± 0.8 µM; against full-length LSD2 it was 8.7 ± 0.8 µM; against MAO-B (setting [6]), 29 ± 4 µM; in assay [3], 0.07 ± 0.003 µM. Besides, the “fold less potent at LSD1 than the unsubstituted derivatives 21a and 21b” value in assay [2] is listed as “approximately 4 fold”.

As to `N[C@@H]1CC12CCc1cc(-c3ccccc3)ccc12` (stereo in doubt) [Compound 28a, (2R)-5′-phenyl-2′,3′-dihydrospiro[cyclopropane-1,1′-inden]-2-amine hydrochloride], the IC50 against MAO-A [1] (MAO-A IC50) came to 0.46 µM; against full-length LSD2, 94 µM; against MAO-B (MAO-B IC50), 0.17 µM; in assay [3] it was 0.1 ± 0.01 µM.
